Data from patent US11819507B2, “Cholecalciferol sulfate salts and their use for the treatment of vitamin D deficiency” (CFSO GMBH, priority 2015, dated 2023).

Test: Applying the transdermal formulation of Example 8 to skin; residue on the skin checked by TLC
Assay type: in vivo
Conditions: about 2 ml of the formulation of Example 8 applied in a thin layer, allowed to penetrate for 4 hours; skin wiped with 96% ethanol cotton pad, extract examined by TLC
Method: About 2 ml of the formulation prepared in Example 8 were applied in a thin layer to the skin of a subject and allowed to penetrate for 4 hours. Subsequently, the skin was well wiped using a sterile cotton pad soaked with 96% ethanol. The cotton pad was boiled with additional 96% ethanol and squeezed. The ethanol was evaporated on a rotary evaporator, and a small amount of chloroform-methanol (9:1 Vol./Vol.) mixture was added to the flask.

With `C=C1CCC(OS(=O)(=O)O)CC1=CC=C1CCCC2(C)C1CCC2C(C)CCCC(C)C.NCCCCC(N)C(=O)O` [L-lysine cholecalciferol sulfate] the “L-lysine cholecalciferol sulfate remaining on the skin (TLC on silica gel)” value was “substantially no”.
